Usually Ki stands for the equilibrium dissociation constant of an inhibitor or competing ligand from its target. A low value points to tighter binding.

In patent US20070197594A1, “Cyclic amine derivative or salt thereof” (ASTELLAS PHARMA INC., priority 2004, published 2007) one finds Ki data, which are given here for 19 molecules.

Counter-ions that a name gives are not always drawn.

This test addresses NMDA receptor. Put plainly: MK-801 binding test ([3H]MK-801-binding assay, rat membrane specimen). To be noted: NMDA receptor affinity, [3H]MK-801 4 nM in assay, Ki computed from IC50. The protocol:
1) Preparation of Specimens of Rat Meninges:
The whole brain was taken out from 10-week-age SD rats (30 heads, by Nippon SLC), and the cerebellum was removed from it. A 0.32 M sucrose solution was added to the part containing the cerebrum, cut in a mixer, and homogenized with a Teflon™ homogenizer. This was centrifuged at 2800 rpm and 4° C. for 15 minutes, and the resulting supernatant was again centrifuged at 15000 g and 4° C. for 20 minutes. The pellets were suspended in 50 mM Tris-HCL (pH 7.5) containing 0.08% Triton X-100, and kept statically on ice for 30 minutes, then centrifuged at 15000 g and 4° C. for 20 minutes. The pellets were suspended in 50 mM Tris-HCl (pH 7.5) added thereto, and centrifuged at 15000 g and 4° C. for 20 minutes. 50 mM Tris-HCl (pH 7.5) was again added to the pellets, and centrifuged in the same manner as before. The pellets were suspended in 20 ml of 50 mM Tris-HCl (pH 7.5) added thereto, and homogenized with a Teflon™ homogenizer. The membrane specimen was divided into small tubes and stored in a deep freezer (−80° C.). Before use, this washed twice with 5 mM Tris-HCl (pH 7.5) of five times that of the membrane specimen. Its concentration was controlled at 1 mg protein/ml with 5 mM Tris-HCl (pH 7.5) added to it, and this was used for assay.
50 μl of the rat membrane specimen (1 mg protein/ml) was added to a solution of a test compound dissolved in 1 μl of DMSO.

For the molecule `CN1CCC(C2(O)c3ccccc3CC2(C)C)CC1` (stereo not shown) [Example 1, 2,2-Dimethyl-1-(1-methylpiperidin-4-yl)indan-1-ol monofumarate], the Ki was 1.4 µM.

In turn, `COc1c(F)ccc2c1C(O)(C1CCN(C)CC1)C(C)(C)C2` (stereo not shown) [Example 44] displayed a Ki of 0.93 µM.

In the case of `CCOc1c(F)ccc2c1C(O)(C1CCN(C)CC1)C(C)(C)C2` (stereo not shown) [Example 98], the affinity, expressed as Ki, was 8.4 µM.

In turn, `CN1CCC(C2(O)c3c(Br)ccc(F)c3CC2(C)C)CC1` (stereo not shown) [Example 36] had a Ki of 1.9 µM.

In the case of `CN1CCC(C2(O)c3c(ccc(F)c3Br)CC2(C)C)CC1` (stereo not shown) [Example 34], affinity was put at a Ki of 1.8 µM.

`COc1c(F)c(F)cc2c1C(O)(C1CCN(C)CC1)C(C)(C)C2` (stereo not shown) [Example 108]: the affinity corresponds to a Ki of 5.6 µM. This Ki lies about 3.1-fold higher than the previous one.

In turn, `COc1c(C#N)cc(F)c2c1C(O)(C1CCN(C)CC1)C(C)(C)C2` (stereo not shown) [Example 113] yielded a Ki of 0.9 µM. Compared with the last molecule, the Ki is about 6.2-fold lower.

Turning to `CN1CCC(C2(O)c3ccc(Br)cc3CC2(C)C)CC1` (stereo not shown) [Example 15], the affinity, expressed as Ki, was 0.86 µM.

In turn, `Cc1ccc2c(c1)C(O)(CC(C)(C)N)C(C)(C)C2` (stereo not shown) [Example 131, 1-(2-Amino-2-methylpropyl)-2,2,6-trimethylindan-1-ol fumarate] had a Ki of 4.8 µM.

`CN1CCC(C2(O)c3cc(F)ccc3CC2(C)C)CC1` (stereo not shown) [Example 9] had a Ki of 0.93 µM.

`Cc1ccc2c(c1)C(O)(C1CCN(C)CC1)C(C)(C)C2` (stereo not shown) [Example 6, 2,2,6-trimethyl-1-(1-methylpiperidin-4-yl)indan-1-ol] had a Ki of 0.88 µM. The Ki values of the last two molecules are within 1.5-fold of each other.

Take `CN1CCC(C2(O)c3c(c(F)cc4c3OCC4)CC2(C)C)CC1` (stereo not shown) [Example 139, 5-Fluoro-7,7-dimethyl-8-(1-methylpiperidin-4-yl)-2,6,7,8-tetrahydro-2H-indeno[4,5-b]furan-8-ol fumarate]: the Ki was 5 µM. This Ki lies about 5.7-fold higher than the previous one.

For the molecule `CN1CCC(C2(O)c3cc(Br)cc(F)c3CC2(C)C)CC1` (stereo not shown) [Example 32], the Ki amounted to 0.44 µM.

`COc1cc(F)c2c(c1OC)C(O)(C1CCN(C)CC1)C(C)(C)C2` (stereo not shown) [Example 101]: affinity was put at a Ki of 2.1 µM.

The molecule `COc1c(F)ccc2c1C1(CCC(CN3CCCC3)O1)C(C)(C)C2` (stereo not shown) [Example 145] showed a Ki of 8.4 µM.

Regarding `CN1CCC(C2(O)c3cc(Cl)c(F)cc3CC2(C)C)CC1` (stereo not shown) [Example 28], the Ki came out at 1 µM.

Consider `COc1ccc(F)c2c1C(O)(C1CCN(C)CC1)C(C)(C)C2` (stereo not shown) [Example 85], for which the Ki turned out to be 6.2 µM.

For the molecule `CN1CCC(C23OCCOc4c(F)ccc(c42)CC3(C)C)CC1` (stereo not shown) [Example 143, 4-(9-Fluoro-5,5-dimethyl-2,3,5,6-tetrahydro-4aH-indeno[1,7-ef][1,4]dioxepin-4a-yl-1-methylpiperidine fumarate], the Ki worked out at 0.7 µM.

The molecule `CN1CCC(C2(O)c3ccccc3CCC2(C)C)CC1` (stereo not shown) [Example 53] came in with a Ki of 4.1 µM.
